According to patent US7205004B2, “Herbal composition for treatment of neuronal injuries and neuronal degeneration, methods to prepare the same and uses thereof” (priority 2000, dated 2007):

Tests used:
Assay type in all cases: in vivo
mice [1] = experiment: Effects on antibody production in mice (sheep erythrocyte immunization); settings: mice n = 15, immunized with 10% sheep erythrocytes day 2, measured day 8; Bu-Nao-Gao 4 g/Kg orally, hydrocortisone 50 mg/Kg i.m., 7 days
Procedure: Mice were randomly distributed, and were given Bu-Nao-Gao (4 g/Kg) orally, or hydrocortison (50 mg/Kg) or saline intramuscularly, for seven days. On day 2, they were immunized with 10% sheep erythrocytes intra-peritoneally. On day 8, erythrocyte agglutination as well as cell lysis were measured respectively.

mice [2] = experiment: Effects on the weight of immune organs; settings: mice n = 15, 7 days; Bu-Nao-Gao 4 g/Kg orally, hydrocortisone 50 mg/Kg intramuscularly
Procedure: Mice were randomly distributed, and were given Bu-Nao-Gao (4 g/Kg) orally, or hydrocortison (50 mg/Kg) or saline intramuscularly, for seven days. 24 hours after the last administration, mice were sacrificed.

mice [3] = settings: mice n = 15; Bu-Nao-Gao oral 4 g/Kg daily, cyclophosphomide 0.03 g/kg i.m. every other day
Procedure: Mice were given Bu-Nao-Gao (oral at 4 g/Kg daily), or cyclophosphomide (0.03 g/kg, intramuscularly every other day) or saline (oral, daily). On day 3, mice were given 0.02 ml of 7% DNCB subcutaneously on the back, and were boosted three days later in the same way. 9 days later, 0.02 ml of 1% DNCB was applied to the left ear. This area was removed by a ear puncher of 9 mm diameter and the extent of ear swelling represents the extent of delayed-type hypersensitivity (for results, see Table 6).

Row | Compound | Agglutinin (33) (HC50) (mice [1]) | Erythorcytolysin (32) (mice [1]) | Index of immune organ (mg/g X +/− SD), Spleen (mice [2]) [mg/g] | Index of immune organ (mg/g X +/− SD), thymus (mice [2]) [mg/g] | DNCB (extent of swolleness) (mice [3])
1 | C[C@]12CCC(=O)C=C1CC[C@@H]1[C@@H]2[C@@H](O)C[C@@]2(C)[C@H]1CC[C@]2(O)C(=O)CO [Hydrocortisone] | 126.7 +/− 19.3 | 37.5 +/− 4.2 | 2.66 ± 0.40 | 1.37 ± 0.26 | –
2 | O=P1(N(CCCl)CCCl)NCCCO1 (centres unmarked) [cyclo-phosphamidum, cyclophosphomide] | – | – | – | – | 12.26 +/− 8.8
